# Where two headings read alike, the source gives them in different places.
# What was measured:
# [1] = test system: castration-resistant prostate cancer xenograft; conditions: in vivo; cited from earlier work
# [2] = test system: SEB-1 human primary sebocytes; experiment: Growth inhibition (MTT) of SEB-1 sebocytes; assay type: cell-based; conditions: for GI50: Homo sapiens, 168 h, MTT assay, 7 days treatment; for fold more potent inhibition of growth than 13-CRA (isotretinoin), SEB-1: ratio of GI50 values versus 13-CRA
# Description: Human adult keratinocytes (pooled) (ZenBio Inc., Research Triangle Park, NC) were cultured in human adult keratinocyte growth medium (KM-2). The SEB-1 human primary sebocytes (ZenBio Inc., Research Triangle Park, NC) were cultured and maintained in sebocyte growth medium. Cells were plated 1 day prior to treatment. Retinamides (VNLG-152 and VNHM-1-73) and other clinically relevant retinoids (13-CRA, 9-CRA, and ATRA) were treated at indicated concentration and time periods and incubated at 37° C. in 5% CO2.
# Assays for normal human adult keratinocytes (NHAKs) and human SEB-1 sebocytes growth inhibition were performed as described previously^20. Adult human keratinocytes or sebocytes were treated with VNLG-152,VNHM-1-73 and other retinoids for 7 days. MTT assay was performed at the end of the experiment. Results represent the mean±standard deviation of three independent experiments.
# [3] = test system: reconstructed human epidermis (RHE); experiment: Reconstructed human epidermis (RHE) histology, H and E; assay type: cell-based; conditions: 0.02% topical, 3 days at 37° C.
# Description: RHE tissues were treated with indicated concentration and incubated for 3 days at 37° C. Following treatment tissues were fixed, sectioned and stained with H and E. Representative images from three independent experiments are shown in FIG. 5A to 5E. RHE tissues were untreated (FIG. 5A) or treated with vehicle (ethanol) (FIG. SB), ATRA 0.02% solution (FIG. 5C), 13-CRA 0.02% (FIG. 5D); and VNLG-152 0.02% (FIG. 5E). […] In the figures, “SC” refers to “stratum corneum”, “SG” to “stratum granulosum”, “SS” to “stratum spinosum”, and “SB” to “stratum basale”.
# [4] = test system: triple negative breast cancer (TNBC) tumor; conditions: in vivo; cited from earlier work
# [5] = test system: keratin 10 (K10), keratin 19 (K19) and filaggrin expression in RHE cultures; experiment: RHE immunostaining for K10, K19 and filaggrin; conditions: 0.02% topical, 3 days, immunolabelling
# [6] = test system: NHAK cells; experiment: Anti-proliferative effect of ATRA or 13-CRA alone or combined with low-dose VNLG-152; assay type: cell-based, human; conditions: for GI50: Homo sapiens, alone, 0.1 to 10,000 nM, continuous incubation, read-out: GI50, ATRA or 13-CRA alone (Example 2); for fold enhancement of anti-proliferative activity (GI50) by VNLG-152: in combination with 40 nM VNLG-152, NHAK
# [7] = test system: NHAK; experiment: TUNEL (in situ cell death detection) apoptosis assay; assay type: cell-based, human; conditions: 72 hours
# Description: (§1) For acridine orange/ethidium bromide (AO/EB) dual staining assay, keratinocytes were treated with indicated concentrations of the compounds for 24.48 and 72 h. At the end of incubation period, 100 μl of 1:1 ratio of acridine orange (0.1%) and ethidium bromide (0.2%) in PBS were added to the cells and incubated at 37° C. and 5% CO2 for 30 min. Cells were then immediately analyzed using Nikon TE2000 fluorescence microscope. Assessment of the apoptotic potential by in situ Cell Death Detection assay was done as per protocol of the manufacturer (Roche Diagnostics).
# The apoptosis inducing potential of VNLG-152 was evaluated by TUNEL assay in NHAK. The individual cell lines as indicated were seeded in 8 well chamber slides, and treated with indicated concentrations and times of 13-CRA, ATRA and VNLG-/152. After 72 hours, the plates were analyzed for TUNEL positive staining. Statistical analysis was performed with ANOVA two factor with replication (*P<0.05, **P<0.01, ***P<0.001).
# [8] = test system: mTORC1/4E-BP1/p70SK6 signaling; conditions: cited from earlier work
# [9] = test system: adult normal human keratinocytes (NHAKs); experiment: Growth inhibition (MTT) of adult normal human keratinocytes; assay type: cell-based; conditions: for GI50: Homo sapiens, Keratinocyte; for fold more potent inhibition of growth than 13-CRA (isotretinoin), NHAKs: ratio of GI50 values versus 13-CRA
# [10] = test system: keratinocytes; experiment: Acridine orange/ethidium bromide (AO/EB) dual staining apoptosis assay; assay type: cell-based, human; conditions: VNLG-152 0.2 μM, 48 and 72 h; versus 13-CRA and ATRA 5 and 10 μM
# Description: as §1
# In FIGS. 3A and 3B, the plates were analyzed for early apoptotic and viable cells using acridine orange/ethidium bromide staining. […] In FIG. 3C, the bars are means of three replicate determinations plus standard deviations. Statistical analysis was performed with ANOVA two factor with replication (*P<0.05, **P<0.01, ***P<0.001).
# [11] = test system: immortalized human sebocytes SZ95; conditions: after 9 days; cited from earlier work
# [12] = test system: RARα,β,γ receptors; conditions: significantly less potent than ATRA; cited from earlier work
# [13] = test system: retinoic acid metabolism; conditions: racemate versus enantiomers; cited from earlier work
# [14] = 168 h, MTT assay, 7 days treatment, read-out: GI50, growth and proliferation of adult keratinocytes (NHAKs)
# [15] = read-out: GI50 values in inhibiting NHAKs and sebocytes (range over both cell types)
compound,measurement,setting,value
CC1=C(/C=C/C(C)=C/C=C/C(C)=C/C(=O)Nc2ccc(F)cc2)C(C)(C)CCC1n1ccnc1 (centres unmarked) [VNLG-152],effect on castration-resistant prostate cancer xenograft growth,[1],suppress EMT and castration-resistant prostate cancer xenograft growth
same,GI50,[2],66 nM
same,"fold more potent inhibition of growth than 13-CRA (isotretinoin), SEB-1",[2],603 fold
same,times more potent than 13-CRA in reducing the growth of SEB-1 sebocytes,[2]; versus 13-CRA,about 35 times
same,RHE morphology after topical treatment,[3],loss of keratohyalin granules in the upper granular layer
same,effect on TNBC tumor growth and metastasis,[4],potently inhibits triple negative breast cancer (TNBC) tumor growth and metastasis
same,expression of K10 and filaggrin in sb and sg layers of RHE,[5],reduced the expression of these proteins
same,anti-proliferative effect at low dose,"[6]; 40 nM VNLG-152 alone, NHAK",< 10%
same,induction of apoptosis versus control (TUNEL),[7]; 0.2 μM,~50%
same,induction of apoptosis (TUNEL),[7]; 1 μM,~84%
same,inhibition of mTORC1 signaling,[8],potently inhibits mTORC1/4E-BP1/p70SK6 signaling
same,GI50,[9]; [14],239 nM
same,GI50,[9]; [15],66 to 239 nM
same,"fold more potent inhibition of growth than 13-CRA (isotretinoin), NHAKs",[9],317.4 fold
same,"pro-apoptotic effect, AO/EB dual staining",[10],strong pro-apoptotic effects
"CC1=C(/C=C/C(C)=C/C=C/C(C)=C\C(=O)O)C(C)(C)CCC1 [Compound 13-CRA, 13-cis-retinoic acid]",RHE morphology after topical treatment,[3],loss of keratohyalin granules in the upper granular layer
same,GI50,[6],75800 nM
same,fold enhancement of anti-proliferative activity (GI50) by VNLG-152,[6],123 fold
same,GI50,[9]; [15],26000 to 96400 nM
same,reduction of proliferation of SZ95 sebocytes,[11],approximately 50%
"CC1=C(/C=C/C(C)=C/C=C/C(C)=C/C(=O)O)C(C)(C)CCC1 [ATRA, all-trans-retinoic acid]",RHE morphology after topical treatment,[3],loss of keratohyalin granules in the upper granular layer
same,expression of K10 and filaggrin in sb and sg layers of RHE,[5],reduced the expression of these proteins
same,GI50,[6],63100 nM
same,fold enhancement of anti-proliferative activity (GI50) by VNLG-152,[6],200 fold
same,reduction of proliferation of SZ95 sebocytes,[11],approximately 50%
"CC1=C(/C=C/C(C)=C\C=C\C(C)=C\C(=O)O)C(C)(C)CCC1 [Compound 9-CRA, 9-cis-retinoic acid]",reduction of proliferation of SZ95 sebocytes,[11],approximately 50%
CC1=C(/C=C/C(C)=C/C=C/C(C)=C/C(=O)O)C(C)(C)CCC1n1ccnc1 (centres unmarked) [VN/14-1],RAR binding and activation,[12],"binds and activates the RARα,β,γ receptors"
COC(=O)/C=C(C)/C=C/C=C(C)/C=C/C1=C(C)C(n2ccnc2)CCC1(C)C (racemic) [(±)-VN-12-1],fold more potent than either pure (4S)-(+)- or (4R)-(−)- enantiomer,[13],up to 28 fold
"CC1=C(/C=C/C(C)=C/C=C/C(C)=C\C(=O)NCc2ccc(O)cc2)C(C)(C)CCC1n1ccnc1 (centres unmarked) [VNHM-1-73, (2Z,4E,6E,8E)-9-(3-(1H-imidazol-1-yl)-2,6,6-trimethylcyclohex-1-en-1-yl)-N-(4-hydroxybenzyl)-3,7-dimethylnona-2,4,6,8-tetraenamide]",GI50,[2],467 nM
same,"fold more potent inhibition of growth than 13-CRA (isotretinoin), SEB-1",[2],85 fold
same,GI50,[9]; [14],1280 nM
same,"fold more potent inhibition of growth than 13-CRA (isotretinoin), NHAKs",[9],59.3 fold
